According to ChEMBL document CHEMBL4177635, “Discovery and structure-activity-relationship study of novel conformationally restricted indane analogues for mutant isocitric dehydrogenase 1 (IDH1) inhibitors” (Bioorg Med Chem Lett, 2017):

Columns and labels:
[1] = target: Isocitrate dehydrogenase [NADP] cytoplasmic (Homo sapiens, UniProt O75874, R132H); assay: Inhibition of IDH1 R132H mutant (unknown origin) using alpha-ketoglutarate as substrate after 60 mins by resazurin dye based fluorescence assay
[2] = target: Isocitrate dehydrogenase [NADP] cytoplasmic (Homo sapiens, UniProt O75874, R132C); assay: Inhibition of IDH1 R132C mutant in human HT1080 cells assessed as reduction in 2-hydroxyglutarate production after 48 hrs by LC-MS/MS analysis; format: cell-based
[3] = Intrinsic clearance in mouse liver microsomes assessed per g protein at 1 uM by LC-MS/MS analysis; format: ADME, microsome
[4] = Intrinsic clearance in rat liver microsomes assessed per g protein at 1 uM by LC-MS/MS analysis; format: ADME, microsome
[5] = target: Isocitrate dehydrogenase [NADP] cytoplasmic (Homo sapiens, UniProt O75874); assay: Inhibition of IDH1 (unknown origin) using isocitrate as substrate after 60 mins by resazurin dye based fluorescence assay
[6] = target: Isocitrate dehydrogenase [NADP], mitochondrial (Homo sapiens, UniProt P48735, R140Q); assay: Inhibition of IDH2 R140Q mutant (unknown origin) using alpha-ketoglutarate as substrate pretreated for 60 mins followed by substrate addition measured after 60 mins by resazurin dye based fluorescence assay
Homo sapiens [7] = organism: Homo sapiens; assay: Selectivity ratio of IC50 for IDH1 (unknown origin) to IC50 for […] (unknown origin)
Homo sapiens [8] = organism: Homo sapiens; assay: Selectivity ratio of IC50 for IDH2 R140Q mutant (unknown origin) to IC50 for IDH2 R140Q mutant (unknown origin)
[9] = Clearance in ICR mouse at 1 mg/kg, iv by HPLC-MS analysis; format: ADME, organism-based; settings: in vivo
[10] = Volume of distribution at steady state in ICR mouse at 1 mg/kg, iv or 5 mg/kg, po by HPLC-MS analysis; format: ADME, organism-based; settings: in vivo, read-out: Vdss
Mus musculus [11] = assay: AUC in ICR mouse at 1 mg/kg, iv by HPLC-MS analysis; format: ADME, organism-based; settings: in vivo
Mus musculus [12] = assay: AUC in ICR mouse at 5 mg/kg, po by HPLC-MS analysis; format: ADME, organism-based; settings: in vivo
Mus musculus [13] = assay: Oral bioavailability in ICR mouse at 5 mg/kg by HPLC-MS analysis; format: ADME, organism-based; settings: in vivo

Chain of Isocitrate dehydrogenase [NADP] cytoplasmic (Homo sapiens, UniProt O75874, R132C) (O75874 2-414 R132C limits assumed): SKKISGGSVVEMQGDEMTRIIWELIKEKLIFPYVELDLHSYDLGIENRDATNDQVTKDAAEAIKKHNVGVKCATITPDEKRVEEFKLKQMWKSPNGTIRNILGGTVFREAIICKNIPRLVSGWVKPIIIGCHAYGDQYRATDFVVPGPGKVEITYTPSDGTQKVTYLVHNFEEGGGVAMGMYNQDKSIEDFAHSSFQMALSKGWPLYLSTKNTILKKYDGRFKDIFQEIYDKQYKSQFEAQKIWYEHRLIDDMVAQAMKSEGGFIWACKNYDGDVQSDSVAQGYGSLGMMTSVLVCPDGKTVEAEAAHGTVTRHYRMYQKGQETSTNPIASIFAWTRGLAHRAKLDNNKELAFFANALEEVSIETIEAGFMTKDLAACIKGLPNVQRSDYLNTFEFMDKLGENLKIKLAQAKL
Chain of Isocitrate dehydrogenase [NADP] cytoplasmic (Homo sapiens, UniProt O75874, R132H) (O75874 2-414 R132H limits assumed): as the sequence (O75874 2-414 R132C limits assumed) above, with C131H counted along it
Chain of Isocitrate dehydrogenase [NADP], mitochondrial (P48735 40-452 R140Q limits assumed): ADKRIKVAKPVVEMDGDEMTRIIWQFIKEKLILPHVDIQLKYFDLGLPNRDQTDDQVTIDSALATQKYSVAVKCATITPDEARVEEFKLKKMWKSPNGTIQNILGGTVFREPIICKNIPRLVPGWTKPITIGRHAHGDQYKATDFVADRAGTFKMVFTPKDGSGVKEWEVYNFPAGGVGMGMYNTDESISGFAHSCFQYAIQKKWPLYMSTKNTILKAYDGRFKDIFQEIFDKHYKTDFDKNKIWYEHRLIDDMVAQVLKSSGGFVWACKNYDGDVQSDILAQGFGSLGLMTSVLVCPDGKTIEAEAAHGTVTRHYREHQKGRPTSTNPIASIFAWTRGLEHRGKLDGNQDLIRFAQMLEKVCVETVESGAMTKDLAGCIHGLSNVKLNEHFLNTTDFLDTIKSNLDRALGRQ
Chain of Isocitrate dehydrogenase [NADP] cytoplasmic (Homo sapiens, UniProt O75874) (O75874 whole entry): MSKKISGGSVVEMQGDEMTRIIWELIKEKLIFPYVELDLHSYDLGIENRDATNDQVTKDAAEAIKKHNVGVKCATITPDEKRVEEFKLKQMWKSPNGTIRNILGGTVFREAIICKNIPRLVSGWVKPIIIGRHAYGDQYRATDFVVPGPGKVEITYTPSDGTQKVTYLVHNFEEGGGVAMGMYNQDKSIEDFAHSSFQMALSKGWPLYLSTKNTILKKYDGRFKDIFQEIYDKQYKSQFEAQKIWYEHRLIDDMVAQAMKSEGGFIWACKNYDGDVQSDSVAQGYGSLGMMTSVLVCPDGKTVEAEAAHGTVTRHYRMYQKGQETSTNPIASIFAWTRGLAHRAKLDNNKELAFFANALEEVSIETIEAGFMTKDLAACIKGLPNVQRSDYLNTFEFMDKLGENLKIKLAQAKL

IC50 [1] [nM] | IC50 [2] [nM] | Compound | also measured
> 10000 | – | N#Cc1ccnc(N2C(=O)CC[C@@H]2C(=O)N(c2cccc(F)c2)[C@@]2(C(=O)NC3CC(F)(F)C3)CCc3ccccc32)c1 | –
37 | < 10 | N#Cc1ccnc(N2C(=O)CC[C@H]2C(=O)N(c2cccc(F)c2)[C@@]2(C(=O)NC3CCCCC3)CCc3ccccc32)c1 | CLH [3]: 2359 mL/min; CLH [4]: 1145 mL/min
635 | – | N#Cc1ccnc(N2CCC[C@H]2C(=O)N(c2cccc(F)c2)[C@@]2(C(=O)NC3CC(F)(F)C3)CCc3ccccc32)c1 | –
275 | – | N#Cc1ccnc(N2C(=O)CC[C@H]2C(=O)N(c2cncc(F)c2)[C@@]2(C(=O)NC3CC(F)(F)C3)CCCc3ccccc32)c1 | –
260 | – | N#Cc1ccnc(N2C(=O)CC[C@H]2C(=O)N(c2ccccc2)[C@@]2(C(=O)NC3CC(F)(F)C3)CCc3ccccc32)c1 | –
42 | 9 | N#Cc1ccnc(N2C(=O)OC[C@H]2C(=O)N(c2cccc(F)c2)[C@@]2(C(=O)NC3CC(F)(F)C3)CCc3cccc(Cl)c32)c1 | –
49 | 7.5 | N#Cc1ccnc(N2C(=O)CC[C@H]2C(=O)N(c2cccc(F)c2)[C@@]2(C(=O)NC3CC(F)(F)C3)CCc3cc(Cl)ccc32)c1 | IC50 [5]: 1780 nM; IC50 [6]: > 100 nM; Ratio IC50 (Homo sapiens [7]): 36; Ratio IC50 (Homo sapiens [8]): > 2040; clearance [9]: 20 mL/min/kg; Vd [10]: 1.9 L; AUC (Mus musculus [11]): 834 ng·h/mL; AUC (Mus musculus [12]): 3780 ng·h/mL; F (Mus musculus [13]): 38%
53 | 14 | N#Cc1ccnc(N2C(=O)CC[C@H]2C(=O)N(c2cc(F)cc(F)c2)[C@@]2(C(=O)NC3CC(F)(F)C3)CCc3c(Cl)cccc32)c1 | –
148 | – | N#Cc1ccnc(N2C(=O)CC[C@H]2C(=O)N(c2cccc(F)c2F)[C@@]2(C(=O)NC3CC(F)(F)C3)CCc3ccccc32)c1 | –
128 | – | O=C1CC[C@@H](C(=O)N(c2cc(F)cc(F)c2)[C@@]2(C(=O)NC3CC(F)(F)C3)CCc3ccccc32)N1c1cnccn1 | –
58 | 19 | N#Cc1ccnc(N2C(=O)OC[C@H]2C(=O)N(c2cccc(F)c2)[C@@]2(C(=O)NC3CC(F)(F)C3)CCc3ccccc32)c1 | –
180 | – | N#Cc1ccnc(N2C(=O)CC[C@H]2C(=O)N(c2cc(F)cc(F)c2)[C@@]2(C(=O)NC3CC(F)(F)C3)CCc3cccc(Cl)c32)c1 | –
22 | 14.9 | N#Cc1ccnc(N2C(=O)CC[C@H]2C(=O)N(c2cc(F)cc(F)c2)[C@@]2(C(=O)NC3CC(F)(F)C3)CCc3ccccc32)n1 | –
338 | – | N#Cc1ccnc(N2C(=O)CC[C@H]2C(=O)N(c2cc(F)ccc2F)[C@@]2(C(=O)NC3CC(F)(F)C3)CCc3ccccc32)c1 | –
95 | – | N#Cc1ccnc(N2C(=O)CC[C@H]2C(=O)N(c2ccc(F)c(F)c2)[C@@]2(C(=O)NC3CC(F)(F)C3)CCc3ccccc32)c1 | –

Further lines, the compound ahead of its results:

Compound | IC50 [1] [nM] | IC50 [2] [nM] | also measured
N#Cc1ccnc(N2C(=O)CC[C@H]2C(=O)N(c2cccc(F)c2)[C@@]2(C(=O)NC3CC(F)(F)C3)CCc3ccccc32)c1 | 85 | 25 | CLH [3]: 54.1 mL/min; CLH [4]: 3.7 mL/min
O=C1CC[C@@H](C(=O)N(c2cc(F)cc(F)c2)[C@@]2(C(=O)NC3CC(F)(F)C3)CCc3ccccc32)N1c1ccccn1 | > 10000 | – | –
N#Cc1ccnc(N2C(=O)CC[C@H]2C(=O)N(c2cccc(Cl)c2)[C@@]2(C(=O)NC3CC(F)(F)C3)CCc3ccccc32)c1 | 255 | – | –
N#Cc1ccnc(N2C(=O)CC[C@H]2C(=O)N(c2cccc(F)c2)[C@@]2(C(=O)NCC3CCC(F)(F)CC3)CCc3ccccc32)c1 | 80 | 15 | CLH [3]: 567 mL/min; CLH [4]: 24 mL/min
N#Cc1ccnc(N2C(=O)CC[C@H]2C(=O)N(c2cc(F)cc(Cl)c2)[C@@]2(C(=O)NC3CC(F)(F)C3)CCc3ccccc32)c1 | 172 | – | –
N#Cc1ccnc(N2C(=O)OC[C@H]2C(=O)N(c2cc(F)cc(F)c2)[C@@]2(C(=O)NC3CC(F)(F)C3)CCc3ccccc32)n1 | 40 | 308 | –
N#Cc1ccnc(N2C(=O)CC[C@H]2C(=O)N(c2cccc(F)c2)[C@@]2(C(=O)NC3CC(F)(F)C3)CCc3cc(F)ccc32)c1 | 108 | – | –
N#Cc1ccnc(N2C(=O)OC[C@H]2C(=O)N(c2cc(F)cc(F)c2)[C@@]2(C(=O)NC3CC(F)(F)C3)CCc3ccccc32)c1 | 54 | 8.9 | –
COc1ccnc(N2C(=O)CC[C@H]2C(=O)N(c2cc(F)cc(F)c2)[C@@]2(C(=O)NC3CC(F)(F)C3)CCc3ccccc32)c1 | > 10000 | – | –
N#Cc1ccnc(N2C(=O)CC[C@H]2C(=O)N(c2cccc(F)c2)[C@@]2(C(=O)NC3CCOCC3)CCc3ccccc32)c1 | > 1000 | – | –
N#Cc1ccnc(N2C(=O)CC[C@H]2C(=O)N(c2cncc(F)c2)[C@@]2(C(=O)NC3CC(F)(F)C3)CCc3ccccc32)c1 | 94 | 21 | –
CS(=O)(=O)c1ccnc(N2C(=O)CC[C@H]2C(=O)N(c2cc(F)cc(F)c2)[C@@]2(C(=O)NC3CC(F)(F)C3)CCc3ccccc32)c1 | 2960 | – | –
N#Cc1ccnc(N2C(=O)CC[C@H]2C(=O)N(c2cncc(F)c2)[C@@]2(C(=O)NC3CC(F)(F)C3)Cc3ccccc32)c1 | 270 | – | –
N#Cc1ccnc(N2C(=O)CC[C@H]2C(=O)N(c2cccc(F)c2)[C@@]2(C(=O)NC3CC(F)(F)C3)CCc3cccc(Cl)c32)n1 | 22 | 42 | –
N#Cc1ccnc(N2C(=O)CC[C@H]2C(=O)N(c2ccc(Cl)c(F)c2)[C@@]2(C(=O)NC3CC(F)(F)C3)CCc3ccccc32)c1 | 186 | – | –
N#Cc1ccnc(N2C(=O)CC[C@H]2C(=O)N(c2cccc(F)c2)[C@@]2(C(=O)Nc3ccccc3)CCc3ccccc32)c1 | > 1000 | – | –
N#Cc1ccnc(N2C(=O)CC[C@H]2C(=O)N(c2cc(F)cc(F)c2)[C@@]2(C(=O)NC3CC(F)(F)C3)CCc3ccccc32)c1 | 45 | 5 | IC50 [5]: 3560 nM; IC50 [6]: > 100 nM; Ratio IC50 (Homo sapiens [7]): 79; Ratio IC50 (Homo sapiens [8]): > 2200; clearance [9]: 8.33 mL/min/kg; Vd [10]: 1 L; AUC (Mus musculus [11]): 1984 ng·h/mL; AUC (Mus musculus [12]): 3620 ng·h/mL; F (Mus musculus [13]): 87%
N#Cc1ccnc(N2C(=O)CC[C@H]2C(=O)N(c2cccc(F)c2)[C@@]2(C(=O)NC3CC(F)(F)C3)CCc3c(F)cccc32)c1 | 68 | 27 | –
N#Cc1ccnc(N2C(=O)CC[C@H]2C(=O)N(c2cccc(F)c2)[C@@]2(C(=O)NC3CC(F)(F)C3)CCc3c(Cl)cccc32)c1 | 67 | 21 | –
N#Cc1ccnc(N2C(=O)CC[C@H]2C(=O)N(c2cccc(F)c2)[C@@]2(C(=O)NC3CC(F)(F)C3)CCc3ccc(F)cc32)c1 | 138 | – | –
N#Cc1ccnc(N2C(=O)CC[C@H]2C(=O)N(c2cccc(F)c2)[C@@]2(C(=O)NCC3CC3)CCc3ccccc32)c1 | 266 | – | –
N#Cc1cccc(N2C(=O)CC[C@H]2C(=O)N(c2cc(F)cc(F)c2)[C@@]2(C(=O)NC3CC(F)(F)C3)CCc3ccccc32)c1 | 2610 | – | –
N#Cc1ccnc(N2C(=O)OC[C@H]2C(=O)N(c2cccc(F)c2)[C@@]2(C(=O)NC3CC(F)(F)C3)CCc3cccc(Cl)c32)n1 | 5.6 | 29 | –
N#Cc1ccnc(N2C(=O)CC[C@H]2C(=O)N(c2cccc(F)c2)[C@@]2(C(=O)NC3CC(F)(F)C3)CCc3cccc(F)c32)c1 | 51 | 52 | –
